Test results reported in article PMC11431997, “Baicalin Inhibits FIPV Infection In Vitro by Modulating the PI3K-AKT Pathway and Apoptosis Pathway” (International Journal of Molecular Sciences, 2024).
≈ marks a conversion by molar mass, not a printed value. Read-outs that look alike come from different tables or passages of the source.

Columns and labels:
[1] = Cytotoxicity assay of the compounds (CCK-8); assay type: cell-based, feline; settings: cat
Experimental: (§1) CRFK cells were seeded in 96-well cell culture plates at a density of 1 × 10^4 cells/well and incubated at 37 °C with 5% CO2 until the cell density reached more than 90%. Then, the medium was discarded, and the cells were washed twice with PBS. The compound to be tested was diluted in 10 successive gradients with MM at a 2-fold multiplicity (at the same time, there was a cell control group of 100 μL of MM, and 3 replicate wells were set for each concentration and group) and incubated at 37 °C with 5% CO2 for 72 h; then, the liquid in the plate was discarded and washed twice with PBS. Afterwards, the cytopathic ratios (CRs) of the compounds to cells were calculated according to the instructions of the Cell Counting Kit-8 (MCE, NJ, USA), and the CC50s of the compounds and the MNTCs at which the compounds could survive more than 90% of the cells were calculated using GraphPad Prism 10. In subsequent experiments, the final concentrations of the compounds after addition were the MNTCs of the compounds unless otherwise specified.

[2] = system: CRFK cells; assay: Cytotoxicity assay of the compounds (CCK-8); assay type: cell-based, feline
Experimental: as §1

[3] = system: FIPV (BJ-01); assay: Inhibitory effects of compounds on FIPV-infected cells (compound and FIPV added simultaneously, CCK-8); assay type: cell-based, feline infectious peritonitis virus; settings: 72 h; for inhibition of FIPV infection (MIR): compound at MNTC added with 100 TCID50 FIPV to CRFK cells
Experimental: According to previous methods, CRFK cells were seeded in 96-well cell culture plates at a density of 1 × 10^4 cells/well and cultured at 37 °C in 5% CO2 until the cell density was greater than 90%. After the cells were washed twice with PBS, 50 μL of test compound and 50 μL of FIPV were added to each well simultaneously (at the same time, a cell control group with only 100 μL of MM and a viral control group with only 100 μL of FIPV were added). There were 3 replicate wells for each compound and group. After 72 h of incubation at 37 °C and 5% CO2, the liquid in the plate was discarded, and the cells were washed twice with PBS. The MIR of the compounds to the virus was calculated according to the instructions of the Cell Counting Kit-8. Afterwards, the compounds with MIR > 50% were diluted to 8 concentrations with MM, and the above process was repeated. Then, the EC50 values of the compounds were calculated with GraphPad Prism 10.

[4] = CRFK cells, 72 h, CCK-8, read-out: CC50
[5] = CRFK cells, 72 h, CCK-8, concentration at which more than 90% of the cells survive

SMILES | CC50 at 72 h [1, 4] [µg/mL] | MNTC (maximum noncytotoxic concentration) [2, 5] [µg/mL] | inhibition of FIPV infection (MIR) [3] | CC50 at 72 h [1] [µg/mL] | MNTC (maximum noncytotoxic concentration) ([2]; cat, 72 h) [µg/mL] | other results
Cc1coc2c1C(=O)C(=O)c1c-2ccc2c1CCCC2(C)C [Tanshinone IIA] | 807 (≈ 2740 µM) | 290.9 | less than 20% |  |  | 
O=C(O)/C=C/c1ccc(O)c(O)c1 [Caffeic acid] |  |  |  | 58.8 (≈ 326 µM) | 53.43 | 
Cc1nc(C)c(C)nc1C.Cl [Ligustrazine hydrochloride] |  | 969.6 | less than 20% |  |  | CC50 ([2]; CRFK cells, 72 h, CCK-8): 2709 µg/mL
O=C(/C=C/c1ccc(O)c(O)c1)O[C@@H]1C[C@](O)(C(=O)O)C[C@@H](O)[C@H]1O [Chlorogenic acid] |  |  |  | 2170 (≈ 6120 µM) | 1605 | 
N#C[C@@]1(c2ccc3c(N)ncnn23)O[C@H](CO)[C@@H](O)[C@H]1O [GS-441524, reference compound] | 70.3 (≈ 241 µM) | 36.20 | significantly more than the other compounds tested |  |  | EC50 ([3]; Alphacoronavirus 1, FIPV in CRFK cells, gradient dilution, CCK-8): 0.205 µg/mL (≈ 0.704 µM)
O=C1CCC[C@@H]2[C@H]3CCCN4CCC[C@@H](CN12)[C@@H]34 [Matrine] | 1110 (≈ 4470 µM) | 699.8 | less than 20% |  |  | 
CC1(C)[C@@H](O[C@H]2O[C@H](C(=O)O)[C@@H](O)[C@H](O)[C@H]2O[C@@H]2O[C@H](C(=O)O)[C@@H](O)[C@H](O)[C@H]2O)CC[C@]2(C)[C@H]3C(=O)C=C4[C@@H]5C[C@@](C)(C(=O)O)CC[C@]5(C)CC[C@@]4(C)[C@]3(C)CC[C@@H]12 [Glycyrrhizic acid] | 3320 (≈ 4040 µM) | 1412 |  |  |  | 
C[S+](C)[O-] [DMSO] |  |  |  |  |  | MNTC [2]: 0.83%
O=c1c(-c2ccc(O)cc2)coc2c([C@@H]3O[C@H](CO)[C@@H](O)[C@H](O)[C@H]3O)c(O)ccc12 [Puerarin] |  |  | less than 20% | 209 (≈ 501 µM) | 83.77 | 
Cc1cccc2c3c(ccc12)C1=C(C(=O)C3=O)[C@@H](C)CO1 [Dihydrotanshinone I] |  |  | less than 20% | 426 (≈ 1530 µM) | 246.4 | 
